Here are results for 14 molecules from patent publication US7074789B2, “Kinase inhibitors” (Amgen Inc., priority 1999, dated 2006).

Common to all, as to type: biochemical
One test has as its target T1, Lck (Homo sapiens, UniProt P06239).
T1 construct: Kinases are expressed as either kinase domains or full length constructs; made in house
In words: Kinase inhibition assay (33P transfer), Lck. The following applies: Table 3, class symbols; read-out: Lck-1. The method in brief: (§1)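 Activity was read as 33P incorporation, counted by liquid scintillation after a 0.5% phosphoric acid wash, into poly(Glu,Tyr) 4:1 or poly(Arg,Ser) 3:1 substrates coated on plates. Enzymes were tagged (GST or polyHis) kinase domains or full-length proteins from bacterial or insect-cell expression, sometimes with regulatory polypeptides.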

The next test addresses T2, Zap-70 (Homo sapiens, UniProt P43403).
T2 construct: Kinases are expressed as either kinase domains or full length constructs; made in house
T2 sequence (P43403 1-619): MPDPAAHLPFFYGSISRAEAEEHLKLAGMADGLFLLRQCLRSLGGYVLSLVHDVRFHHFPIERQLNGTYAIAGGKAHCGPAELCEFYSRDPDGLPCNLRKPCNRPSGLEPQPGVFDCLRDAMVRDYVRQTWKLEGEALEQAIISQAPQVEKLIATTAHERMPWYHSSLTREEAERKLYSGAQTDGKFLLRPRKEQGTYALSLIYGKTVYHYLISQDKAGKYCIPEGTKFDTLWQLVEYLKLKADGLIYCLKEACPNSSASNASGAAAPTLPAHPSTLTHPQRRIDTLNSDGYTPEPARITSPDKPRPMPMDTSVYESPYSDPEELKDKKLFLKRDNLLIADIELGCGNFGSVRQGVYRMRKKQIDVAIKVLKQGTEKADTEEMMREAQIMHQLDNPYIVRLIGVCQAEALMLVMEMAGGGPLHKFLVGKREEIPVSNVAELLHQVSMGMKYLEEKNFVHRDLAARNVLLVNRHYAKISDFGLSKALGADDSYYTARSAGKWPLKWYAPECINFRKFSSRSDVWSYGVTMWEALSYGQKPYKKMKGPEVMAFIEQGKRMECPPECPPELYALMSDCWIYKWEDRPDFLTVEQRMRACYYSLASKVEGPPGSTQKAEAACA
In words: Kinase inhibition assay (33P transfer), Zap-70. Particulars: Table 3, class symbols; read-out: Zap-1. The method in brief:
as §1

The target of another test is T3, Itk (Homo sapiens, UniProt Q08881).
T3 construct: Kinases are expressed as either kinase domains or full length constructs; made in house
T3 sequence (Q08881 1-620): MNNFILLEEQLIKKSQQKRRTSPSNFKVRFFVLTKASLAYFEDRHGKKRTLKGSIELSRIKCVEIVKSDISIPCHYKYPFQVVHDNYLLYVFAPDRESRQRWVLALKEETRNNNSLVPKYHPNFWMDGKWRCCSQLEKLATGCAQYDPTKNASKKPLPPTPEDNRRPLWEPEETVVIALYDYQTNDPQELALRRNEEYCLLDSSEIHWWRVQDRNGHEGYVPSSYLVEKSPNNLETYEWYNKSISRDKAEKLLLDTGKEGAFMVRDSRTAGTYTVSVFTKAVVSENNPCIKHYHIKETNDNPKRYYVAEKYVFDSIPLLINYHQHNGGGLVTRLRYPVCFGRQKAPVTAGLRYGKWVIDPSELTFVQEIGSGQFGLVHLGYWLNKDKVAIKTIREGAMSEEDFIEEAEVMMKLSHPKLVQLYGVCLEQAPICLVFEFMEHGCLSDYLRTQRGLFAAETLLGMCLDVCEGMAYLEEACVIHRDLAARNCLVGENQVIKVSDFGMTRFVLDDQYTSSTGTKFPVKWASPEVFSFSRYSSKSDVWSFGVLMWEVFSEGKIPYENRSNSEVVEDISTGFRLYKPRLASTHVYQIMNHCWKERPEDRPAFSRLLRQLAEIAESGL
The test can be described thus: Kinase inhibition assay (33P transfer), Itk. Particulars: Table 3, class symbols; read-out: Itk-1. The method in brief:
(§2)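 GST/His-fusion kinases, E. coli or High Five expressed, affinity purified; 33P-ATP, plate-coated poly(Glu,Tyr) 4:1 or poly(Arg,Ser) 3:1; 0.5% H3PO4 wash, scintillant, LSC.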

Another test has as its target T4, EGFR (Homo sapiens, UniProt P00533).
T4 construct: Kinases are expressed as either kinase domains or full length constructs; made in house
The test can be described thus: Kinase inhibition assay (33P transfer), EGFR. The following applies: Table 2, class symbols A-E; read-out: EGFR-1. In short, it runs like this: as §2

The next test has as its target T5, ErbB2 (Homo sapiens, UniProt P04626).
T5 construct: Kinases are expressed as either kinase domains or full length constructs; made in house
The test can be described thus: Kinase inhibition assay (33P transfer), ErbB2. The following applies: read-out: ErbB2-2. In short, it runs like this: as §2

The target of the next test is T6, Kdr (Homo sapiens, UniProt P35968).
T6 construct: Kinases are expressed as either kinase domains or full length constructs; made in house
The test can be described thus: Kinase inhibition assay (33P transfer), Kdr. Particulars: Table 3, class symbols; read-out: KDR-1. In short, it runs like this: as §1

The next test has as its target T7, c-Met (Homo sapiens, UniProt P08581).
T7 construct: Kinases are expressed as either kinase domains or full length constructs; made in house
In words: Kinase inhibition assay (33P transfer), c-Met. Particulars: Table 2, class symbols A-E; read-out: Met-1. The method in brief: as §2

In the next test the target is T8, AKT (Homo sapiens, UniProt Q9Y243).
T8 construct: Kinases are expressed as either kinase domains or full length constructs; made in house
T8 sequence (Q9Y243 whole entry, the tested form may be a part): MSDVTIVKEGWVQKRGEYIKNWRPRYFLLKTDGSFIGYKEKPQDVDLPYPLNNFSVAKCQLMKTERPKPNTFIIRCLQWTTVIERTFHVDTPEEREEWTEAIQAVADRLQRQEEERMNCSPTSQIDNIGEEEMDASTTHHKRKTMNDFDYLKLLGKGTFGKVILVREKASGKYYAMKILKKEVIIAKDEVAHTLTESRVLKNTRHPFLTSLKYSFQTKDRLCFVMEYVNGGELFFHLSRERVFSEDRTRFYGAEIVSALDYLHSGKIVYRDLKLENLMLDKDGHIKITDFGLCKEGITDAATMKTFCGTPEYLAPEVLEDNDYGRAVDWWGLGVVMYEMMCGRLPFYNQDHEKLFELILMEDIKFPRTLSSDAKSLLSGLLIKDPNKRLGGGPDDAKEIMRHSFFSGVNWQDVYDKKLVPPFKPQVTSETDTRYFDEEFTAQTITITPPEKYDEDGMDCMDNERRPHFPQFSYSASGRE
The test can be described thus: Kinase inhibition assay (33P transfer), AKT. Particulars: Table 2, class symbols A-E; read-out: AKT3-1. The method in brief:
as §1

A further test deals with T9, IGFR-1 (Homo sapiens, UniProt P08069).
T9 construct: Kinases are expressed as either kinase domains or full length constructs; made in house
T9 sequence (P08069 31-1367): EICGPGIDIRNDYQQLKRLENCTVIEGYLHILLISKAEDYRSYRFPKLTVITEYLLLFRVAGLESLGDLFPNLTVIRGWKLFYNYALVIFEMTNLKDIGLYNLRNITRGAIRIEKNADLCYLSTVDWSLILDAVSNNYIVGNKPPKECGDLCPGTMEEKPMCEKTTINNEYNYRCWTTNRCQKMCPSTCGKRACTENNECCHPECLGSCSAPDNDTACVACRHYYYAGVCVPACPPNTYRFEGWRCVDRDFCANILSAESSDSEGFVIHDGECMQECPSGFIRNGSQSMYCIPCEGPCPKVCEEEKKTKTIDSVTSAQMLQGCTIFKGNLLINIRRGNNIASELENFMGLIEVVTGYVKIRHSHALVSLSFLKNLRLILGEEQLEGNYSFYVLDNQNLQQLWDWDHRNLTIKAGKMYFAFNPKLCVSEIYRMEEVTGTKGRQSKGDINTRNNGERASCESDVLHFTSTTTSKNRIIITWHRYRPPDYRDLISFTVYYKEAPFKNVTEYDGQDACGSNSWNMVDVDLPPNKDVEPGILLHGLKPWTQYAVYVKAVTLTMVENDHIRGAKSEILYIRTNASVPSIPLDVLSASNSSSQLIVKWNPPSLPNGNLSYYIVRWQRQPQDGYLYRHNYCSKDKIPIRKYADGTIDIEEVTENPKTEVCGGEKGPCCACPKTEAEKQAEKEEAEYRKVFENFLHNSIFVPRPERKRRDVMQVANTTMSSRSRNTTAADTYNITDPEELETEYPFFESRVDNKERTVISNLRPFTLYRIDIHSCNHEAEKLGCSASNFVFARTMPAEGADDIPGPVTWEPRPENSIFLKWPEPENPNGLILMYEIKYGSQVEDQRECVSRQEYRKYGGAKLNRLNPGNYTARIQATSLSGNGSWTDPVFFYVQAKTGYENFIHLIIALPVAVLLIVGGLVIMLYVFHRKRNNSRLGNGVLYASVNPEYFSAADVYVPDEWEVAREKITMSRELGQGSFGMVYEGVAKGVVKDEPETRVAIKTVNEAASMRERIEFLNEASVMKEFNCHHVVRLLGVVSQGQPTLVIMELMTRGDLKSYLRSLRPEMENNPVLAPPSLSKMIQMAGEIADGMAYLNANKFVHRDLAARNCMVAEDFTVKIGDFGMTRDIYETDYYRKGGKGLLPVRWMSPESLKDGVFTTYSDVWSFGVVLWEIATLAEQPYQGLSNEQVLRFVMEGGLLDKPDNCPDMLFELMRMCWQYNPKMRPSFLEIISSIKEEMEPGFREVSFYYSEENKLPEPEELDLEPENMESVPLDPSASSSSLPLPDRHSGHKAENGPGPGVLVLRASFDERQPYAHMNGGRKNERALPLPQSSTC
The test can be described thus: Kinase inhibition assay (33P transfer), IGFR-1. Particulars: Table 2, class symbols A-E.

In a further test the target is T10, PDGFRB (Homo sapiens, UniProt P09619).
T10 construct: Kinases are expressed as either kinase domains or full length constructs; made in house
T10 sequence (P09619 33-1106, species assumed): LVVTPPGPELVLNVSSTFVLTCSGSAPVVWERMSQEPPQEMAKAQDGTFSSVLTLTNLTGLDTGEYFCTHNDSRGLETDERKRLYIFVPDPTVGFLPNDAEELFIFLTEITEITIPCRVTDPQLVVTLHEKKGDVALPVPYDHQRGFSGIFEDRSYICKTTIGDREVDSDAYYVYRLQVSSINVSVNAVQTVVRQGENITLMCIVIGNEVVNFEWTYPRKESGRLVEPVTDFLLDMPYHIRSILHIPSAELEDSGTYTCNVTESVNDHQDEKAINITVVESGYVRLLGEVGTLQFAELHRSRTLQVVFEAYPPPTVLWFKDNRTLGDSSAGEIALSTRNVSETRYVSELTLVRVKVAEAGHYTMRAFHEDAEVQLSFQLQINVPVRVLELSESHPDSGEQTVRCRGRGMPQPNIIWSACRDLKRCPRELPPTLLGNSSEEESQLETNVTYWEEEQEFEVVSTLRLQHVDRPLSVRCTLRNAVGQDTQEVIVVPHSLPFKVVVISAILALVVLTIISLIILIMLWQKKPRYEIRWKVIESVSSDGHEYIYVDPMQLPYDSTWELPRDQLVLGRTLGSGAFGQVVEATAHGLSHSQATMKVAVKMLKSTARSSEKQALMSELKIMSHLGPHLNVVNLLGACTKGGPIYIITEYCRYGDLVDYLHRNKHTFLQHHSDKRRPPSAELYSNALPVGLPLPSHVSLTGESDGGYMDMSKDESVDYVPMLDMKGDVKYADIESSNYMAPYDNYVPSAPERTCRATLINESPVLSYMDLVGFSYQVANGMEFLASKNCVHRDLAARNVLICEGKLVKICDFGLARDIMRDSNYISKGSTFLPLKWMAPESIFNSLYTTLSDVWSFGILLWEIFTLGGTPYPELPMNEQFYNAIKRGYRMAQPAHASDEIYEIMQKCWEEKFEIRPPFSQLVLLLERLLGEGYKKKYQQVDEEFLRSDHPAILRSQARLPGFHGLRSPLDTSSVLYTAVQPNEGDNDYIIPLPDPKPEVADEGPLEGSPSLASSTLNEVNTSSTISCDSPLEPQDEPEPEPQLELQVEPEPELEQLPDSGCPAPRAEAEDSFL
The test can be described thus: Kinase inhibition assay (33P transfer), PDGFRB. The following applies: read-out: PDGFRB-1.

T1 sequence (P06239 whole entry, species assumed, the tested form may be a part): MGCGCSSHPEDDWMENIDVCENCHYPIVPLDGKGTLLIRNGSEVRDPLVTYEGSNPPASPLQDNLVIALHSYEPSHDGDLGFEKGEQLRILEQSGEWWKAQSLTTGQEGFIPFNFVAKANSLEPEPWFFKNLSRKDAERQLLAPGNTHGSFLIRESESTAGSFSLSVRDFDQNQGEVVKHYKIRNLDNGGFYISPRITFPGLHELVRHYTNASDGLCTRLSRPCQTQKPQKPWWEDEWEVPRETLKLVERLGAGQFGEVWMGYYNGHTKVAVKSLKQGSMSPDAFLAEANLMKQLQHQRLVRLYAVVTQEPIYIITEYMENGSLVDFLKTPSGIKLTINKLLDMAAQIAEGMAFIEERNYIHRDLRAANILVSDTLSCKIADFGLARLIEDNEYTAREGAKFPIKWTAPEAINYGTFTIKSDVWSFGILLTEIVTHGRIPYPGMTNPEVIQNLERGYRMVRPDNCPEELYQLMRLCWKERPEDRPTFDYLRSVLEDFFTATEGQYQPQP
T7 sequence (P08581 25-1390): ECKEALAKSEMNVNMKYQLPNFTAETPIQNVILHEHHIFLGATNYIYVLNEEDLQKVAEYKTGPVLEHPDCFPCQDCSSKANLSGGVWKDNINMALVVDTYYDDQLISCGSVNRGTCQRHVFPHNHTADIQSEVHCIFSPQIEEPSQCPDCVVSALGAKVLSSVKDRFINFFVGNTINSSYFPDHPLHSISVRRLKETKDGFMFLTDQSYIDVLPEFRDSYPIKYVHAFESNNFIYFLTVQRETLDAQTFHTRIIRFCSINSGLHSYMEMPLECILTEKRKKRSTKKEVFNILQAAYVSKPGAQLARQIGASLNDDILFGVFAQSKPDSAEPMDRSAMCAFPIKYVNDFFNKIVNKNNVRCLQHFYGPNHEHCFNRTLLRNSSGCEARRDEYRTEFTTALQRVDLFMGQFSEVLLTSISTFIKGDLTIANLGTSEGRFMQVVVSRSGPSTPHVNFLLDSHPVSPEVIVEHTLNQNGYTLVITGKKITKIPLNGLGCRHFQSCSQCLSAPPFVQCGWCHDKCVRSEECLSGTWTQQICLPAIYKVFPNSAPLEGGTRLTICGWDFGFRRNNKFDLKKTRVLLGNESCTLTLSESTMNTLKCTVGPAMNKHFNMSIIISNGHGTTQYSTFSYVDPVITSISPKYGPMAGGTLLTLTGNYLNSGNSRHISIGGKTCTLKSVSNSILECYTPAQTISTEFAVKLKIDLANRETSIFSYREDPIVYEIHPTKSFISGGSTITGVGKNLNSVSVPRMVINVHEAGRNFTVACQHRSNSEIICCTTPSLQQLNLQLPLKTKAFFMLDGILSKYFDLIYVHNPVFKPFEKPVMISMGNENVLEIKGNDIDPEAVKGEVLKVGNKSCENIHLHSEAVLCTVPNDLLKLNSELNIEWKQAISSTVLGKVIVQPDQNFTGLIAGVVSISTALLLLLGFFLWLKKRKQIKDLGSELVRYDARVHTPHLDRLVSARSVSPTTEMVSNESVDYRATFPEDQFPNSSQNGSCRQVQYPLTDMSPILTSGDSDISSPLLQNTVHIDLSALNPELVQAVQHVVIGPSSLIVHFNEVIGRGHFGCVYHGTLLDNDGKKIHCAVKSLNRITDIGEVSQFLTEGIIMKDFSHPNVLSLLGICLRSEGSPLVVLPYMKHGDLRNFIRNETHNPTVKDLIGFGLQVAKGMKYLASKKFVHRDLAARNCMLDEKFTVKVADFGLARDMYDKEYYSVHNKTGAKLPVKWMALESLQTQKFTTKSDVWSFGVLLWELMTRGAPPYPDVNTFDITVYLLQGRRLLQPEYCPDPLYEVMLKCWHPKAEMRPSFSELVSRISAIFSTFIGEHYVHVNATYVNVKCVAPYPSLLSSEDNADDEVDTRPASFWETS

For the molecule `CN(c1cccc(Cl)c1)c1ncnc(Nc2ccc3nn(C)cc3c2)n1` [Compound 675], the IC50 at Lck was 1.09 to 6.56 µM; on Zap-70 it was more than 12.3 µM; on Itk it was more than 12.3 µM; on EGFR it was less than 1.09 µM; at ErbB2, less than 1.09 µM; at Kdr it was 1.09 to 6.56 µM. Moreover, the IC50 was 1.09 to 6.56 µM on c-Met, more than 12.3 µM at AKT, 6.56 to 9.57 µM on IGFR-1 and 1.09 to 6.56 µM at PDGFRB.

Regarding `Fc1ccc(Nc2ncnc(Nc3ccc4c(cnn4Cc4ccccc4)c3)n2)cc1F` [Compound 902], the IC50 on Lck was more than 10.5 µM; at Zap-70, more than 10.5 µM; at Itk, more than 10.5 µM; on EGFR it was less than 0.931 µM; on ErbB2, 0.931 to 5.59 µM; at Kdr, more than 10.5 µM. The IC50 at c-Met was 0.931 to 5.59 µM; at AKT, 0.931 to 5.59 µM; on IGFR-1, 5.59 to 8.15 µM; on PDGFRB it was more than 10.5 µM.

As to `c1ccc(CNc2ncccc2-c2ncnc(Nc3ccc(N4CCOCC4)cc3)n2)cc1` [Compound 1105], the IC50 is more than 10.2 µM on Lck; more than 10.2 µM at Zap-70; more than 10.2 µM at Itk; more than 10.2 µM on EGFR; more than 10.2 µM on ErbB2; less than 0.91 µM on Kdr. The IC50 on c-Met was more than 10.2 µM; at AKT, more than 10.2 µM; on IGFR-1, more than 10.2 µM; at PDGFRB it was less than 0.91 µM.

With `COc1cc(Nc2ncnc(N(C)c3cccc(Cl)c3)n2)cc2ccccc12` [Compound 876], the IC50 was more than 11.5 µM at Lck; more than 11.5 µM at Zap-70; 8.93 to 11.5 µM at Itk; less than 1.02 µM on EGFR; 1.02 to 6.12 µM at ErbB2; more than 11.5 µM at Kdr. Also, the IC50 at c-Met, at AKT, at IGFR-1 and at PDGFRB was more than 11.5 µM in each case.

With `COc1ccc(Nc2ncnc(Nc3cc(Cl)cc(Cl)c3)n2)cc1OC` [Compound 898], the IC50 on Lck is more than 11.5 µM; at Zap-70, more than 11.5 µM; on Itk it was more than 11.5 µM; at EGFR it was 6.12 to 8.92 µM; on ErbB2, more than 11.5 µM; at Kdr, more than 11.5 µM. Also, the IC50 at c-Met was more than 11.5 µM; at AKT, more than 11.5 µM; against IGFR-1, 6.12 to 8.92 µM; at PDGFRB, 8.92 to 11.5 µM.

Turning to `COC(=O)c1ccc(-c2cc(Nc3ncnc(Nc4cc(F)cc(F)c4)n3)[nH]n2)cc1` [Compound 810], the IC50 at Lck, on Zap-70, on Itk, on EGFR, on ErbB2 and at Kdr was more than 10.6 µM throughout. The IC50 on c-Met is more than 10.6 µM; on AKT, more than 10.6 µM; at IGFR-1 it was 8.27 to 10.6 µM; on PDGFRB, more than 10.6 µM.

On to `COc1ccc(Nc2ncnc(NCc3cccc(Cl)c3)n2)cc1OC` [Compound 792], for which the IC50 at Lck is 1.08 to 6.45 µM; on Zap-70 it was more than 12.1 µM; at Itk it was more than 12.1 µM; at EGFR, 1.08 to 6.45 µM; on ErbB2, 6.45 to 9.41 µM; at Kdr, more than 12.1 µM. For the same molecule, the IC50 on c-Met, on AKT, at IGFR-1 and on PDGFRB was more than 12.1 µM in each case.

Regarding `COC(=O)c1ccc(-c2cc(Nc3ncnc(NCc4ccccc4F)n3)[nH]n2)cc1` [Compound 814], the IC50 on Lck, on Zap-70, at Itk, on EGFR, at ErbB2 and at Kdr was more than 10.7 µM throughout. For the same molecule, the IC50 on c-Met was more than 10.7 µM; on AKT, more than 10.7 µM; against IGFR-1 it was more than 10.7 µM; on PDGFRB, 0.954 to 5.72 µM.

For `COc1cc(Nc2ncnc(-c3cccnc3NC(C)C)n2)ccc1NC(=O)CCCN1CCNCC1` [Compound 1096], the IC50 is 0.791 to 4.75 µM on Lck; more than 8.9 µM at Zap-70; 4.75 to 6.92 µM on Itk; more than 8.9 µM at EGFR; more than 8.9 µM at ErbB2; 0.791 to 4.75 µM on Kdr. Besides, the IC50 on c-Met is 6.92 to 8.9 µM; at AKT, 6.92 to 8.9 µM; against IGFR-1, more than 8.9 µM; at PDGFRB, less than 0.791 µM.

For the molecule `c1ccc(-c2cc(Nc3ncnc(Nc4cccc(-c5cnco5)c4)n3)[nH]n2)cc1` [Compound 1010], the IC50 was 1.01 to 6.05 µM on Lck; more than 11.4 µM on Zap-70; 6.05 to 8.83 µM on Itk; 1.01 to 6.05 µM on EGFR; 1.01 to 6.05 µM on ErbB2; 1.01 to 6.05 µM at Kdr. The IC50 on c-Met is less than 1.01 µM; on AKT it was 1.01 to 6.05 µM; against IGFR-1, less than 1.01 µM; on PDGFRB, 1.01 to 6.05 µM.

Take `COc1ccc(CCNc2ncnc(Nc3cc(-c4ccco4)[nH]n3)n2)cc1OC` [Compound 823]: the IC50 at Lck was 8.59 to 11 µM; on Zap-70, 8.59 to 11 µM; at Itk, 0.982 to 5.89 µM; at EGFR, more than 11 µM; on ErbB2, 5.89 to 8.59 µM; on Kdr it was 0.982 to 5.89 µM. Also, the IC50 at c-Met was in the range of 0.982 to 5.89 µM; on AKT, 0.982 to 5.89 µM; on IGFR-1, 5.89 to 8.59 µM; at PDGFRB it was 0.982 to 5.89 µM.

As for `CCOC(=O)c1cccc(Nc2ncnc(Nc3cc(-c4ccc(C(=O)OC)cc4)n[nH]3)n2)c1` [Compound 813], the IC50 at Lck is more than 9.79 µM; on Zap-70, more than 9.79 µM; at Itk, 0.871 to 5.22 µM; at EGFR, more than 9.79 µM; on ErbB2, more than 9.79 µM; on Kdr it was more than 9.79 µM. The IC50 on c-Met was more than 9.79 µM; at AKT, more than 9.79 µM; on IGFR-1 it was more than 9.79 µM; at PDGFRB it was 0.871 to 5.22 µM.

For `COc1ccc(Nc2ncnc(N(C)c3ccc(C)cc3)n2)cc1OC` [Compound 799], the IC50 is 1.14 to 6.83 µM at Lck; more than 12.8 µM at Zap-70; more than 12.8 µM on Itk; less than 1.14 µM on EGFR; 1.14 to 6.83 µM at ErbB2; 1.14 to 6.83 µM at Kdr. Also, the IC50 at c-Met was 1.14 to 6.83 µM; on AKT, more than 12.8 µM; on IGFR-1, 1.14 to 6.83 µM; on PDGFRB it was 1.14 to 6.83 µM.

In the case of `COc1cc(Nc2ncnc(NC(=O)Cc3ccccc3)n2)cc(OC)c1OC` [Compound 679], the IC50 at Lck was 1.01 to 6.07 µM; on Zap-70, more than 11.4 µM; on Itk, more than 11.4 µM; at EGFR it was 1.01 to 6.07 µM; at ErbB2 it was 6.07 to 8.85 µM; on Kdr, 8.85 to 11.4 µM. Moreover, the IC50 was more than 11.4 µM at c-Met, more than 11.4 µM on AKT, more than 11.4 µM on IGFR-1 and 8.85 to 11.4 µM on PDGFRB.
